pIC50: −log10 of the molar value. Read-outs that look alike come from different tables or passages of the source.

One test deals with EGFR del19/T790M/C797S (Homo sapiens, UniProt P00533, C797S/DEL746-750/T790M). As to the kind of experiment: Biochemical EGFR kinase assay (Lance Ultra TR-FRET), triple mutant del19/T790M/C797S. How it is done:
(§1) Biochemical EGFR kinase assays were conducted using Lance Ultra time-resolved fluorescence resonance energy transfer (TR-FRET) technology from Perkin-Elmer. Compounds of the invention were initially diluted to 20 mM in 100% DMSO for storage and made into kinase buffer solution to create a compound concentration ranging from 0.003 μM and 10 μM.
(§2) Each kinase reactions were incubated at room temperature for 1 hour and then stopped by the addition of 4 μL of stop solution (10 mM EDTA). The specific Europium-labeled-anti-phosphopeptide antibody (PerkinElmer, AD0069) diluted in LANCE detection buffer was then added to a final concentration of 2 nM. After 60 minutes incubation at room temperature the LANCE signal was measured on an EnVision Multilabel Reader (Perkin-Elmer). Excitation wavelength was set at 320 nm and emission monitored at 615 nm (donor) and 665 nm (acceptor). The IC50 values were determined using GraphPad prism software (GraphPad Software, Inc., San Diego, CA, USA).
In general terms: In TR-FRET formats the signal depends on donor and acceptor labels being close together.

A further test deals with EGFR L858R/C797S (Homo sapiens, UniProt P00533, C797S/L858R). As to the kind of experiment: Biochemical EGFR kinase assay (Lance Ultra TR-FRET), double mutant L858R/C797S. Particulars: for pIC50: read-out: IC50 L858R/C797S, Km ATP. Here is the method:
as §1, §2

The target in the next test is EGFR L858R/T790M/C797S (Homo sapiens, UniProt P00533, C797S/L858R/T790M). As to the kind of experiment: Biochemical EGFR kinase assay (Lance Ultra TR-FRET), triple mutant L858R/T790M/C797S. Particulars: for pIC50: read-out: IC50 L858R/T790M/C797S, Km ATP. Here is the method:
as §1, §2

Another test concerns the target EGFR del19/C797S (Homo sapiens, UniProt P00533, C797S/DEL746-750). Briefly: Biochemical EGFR kinase assay (Lance Ultra TR-FRET), double mutant del19/C797S. Particulars: for pIC50: read-out: IC50 del19/C797S, Km ATP. How it is done: as §1, §2
Another test concerns the target EGFR wildtype (WT) (Homo sapiens, UniProt P00533). As to the kind of experiment: Biochemical EGFR kinase assay (Lance Ultra TR-FRET), wildtype. As to conditions: for pIC50: read-out: IC50 WT, Km ATP. Here is the method:
as §1, §2

[1] abbreviates: IC50 del19/T790M/C797S (nM) 100 μM ATP, 100 μM ATP.
Where [2] appears, read: Km ATP, read-out: IC50 del19/T790M/C797S (nM) Km ATP.
The mark [3] stands for this setting: IC50 L858R/C797S (nM) 100 μM ATP, 100 μM ATP.
The mark [4] stands for this setting: Km ATP, read-out: IC50 L858R/C797S (nM) Km ATP.
Where [5] appears, read: IC50 L858R/T790M/C797S (nM) 100 μM ATP, 100 μM ATP.
[6] abbreviates: Km ATP, read-out: IC50 L858R/T790M/C797S (nM) Km ATP.
Where [7] appears, read: IC50 del19/C797S (nM) 100 μM ATP, 100 μM ATP.
The mark [8] stands for this setting: Km ATP, read-out: IC50 del19/C797S (nM) Km ATP.
Where [9] appears, read: IC50 WT (nM) 100 μM ATP, 100 μM ATP.
Where [10] appears, read: Km ATP, read-out: IC50 WT (nM) Km ATP.

Sequence of EGFR L858R/C797S (P00533 25-1210 C797S/L858R): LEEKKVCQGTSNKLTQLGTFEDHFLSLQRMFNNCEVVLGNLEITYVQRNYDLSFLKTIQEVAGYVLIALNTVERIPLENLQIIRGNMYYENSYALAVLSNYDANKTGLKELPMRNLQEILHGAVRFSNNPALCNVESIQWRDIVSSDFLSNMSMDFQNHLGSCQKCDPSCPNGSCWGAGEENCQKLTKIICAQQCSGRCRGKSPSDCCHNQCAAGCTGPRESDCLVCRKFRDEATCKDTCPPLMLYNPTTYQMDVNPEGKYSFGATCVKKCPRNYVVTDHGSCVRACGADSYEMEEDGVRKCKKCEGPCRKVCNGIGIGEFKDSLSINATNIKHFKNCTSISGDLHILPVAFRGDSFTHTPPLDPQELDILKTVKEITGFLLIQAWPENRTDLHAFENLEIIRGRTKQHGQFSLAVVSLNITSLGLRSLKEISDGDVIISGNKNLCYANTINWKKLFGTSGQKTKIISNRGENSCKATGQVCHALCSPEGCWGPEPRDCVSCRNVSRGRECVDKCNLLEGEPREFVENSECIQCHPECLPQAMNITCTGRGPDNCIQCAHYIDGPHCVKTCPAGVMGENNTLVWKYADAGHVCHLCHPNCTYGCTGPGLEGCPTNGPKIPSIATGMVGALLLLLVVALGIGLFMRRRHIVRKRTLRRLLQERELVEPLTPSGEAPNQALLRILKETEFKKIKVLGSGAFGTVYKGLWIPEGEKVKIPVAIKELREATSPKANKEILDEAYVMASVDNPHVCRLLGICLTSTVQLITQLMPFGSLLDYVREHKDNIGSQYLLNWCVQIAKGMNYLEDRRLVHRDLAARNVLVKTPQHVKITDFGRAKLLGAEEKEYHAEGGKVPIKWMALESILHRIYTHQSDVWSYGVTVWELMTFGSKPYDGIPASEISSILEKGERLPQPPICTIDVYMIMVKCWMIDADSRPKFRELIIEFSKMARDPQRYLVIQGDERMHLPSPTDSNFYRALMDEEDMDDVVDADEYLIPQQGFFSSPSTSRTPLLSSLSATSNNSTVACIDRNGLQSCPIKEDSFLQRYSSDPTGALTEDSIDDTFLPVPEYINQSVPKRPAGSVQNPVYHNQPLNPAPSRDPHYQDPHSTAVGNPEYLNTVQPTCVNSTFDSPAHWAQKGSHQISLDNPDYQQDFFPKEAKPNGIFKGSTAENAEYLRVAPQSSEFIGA
Sequence of EGFR wildtype (WT) (P00533 25-1210): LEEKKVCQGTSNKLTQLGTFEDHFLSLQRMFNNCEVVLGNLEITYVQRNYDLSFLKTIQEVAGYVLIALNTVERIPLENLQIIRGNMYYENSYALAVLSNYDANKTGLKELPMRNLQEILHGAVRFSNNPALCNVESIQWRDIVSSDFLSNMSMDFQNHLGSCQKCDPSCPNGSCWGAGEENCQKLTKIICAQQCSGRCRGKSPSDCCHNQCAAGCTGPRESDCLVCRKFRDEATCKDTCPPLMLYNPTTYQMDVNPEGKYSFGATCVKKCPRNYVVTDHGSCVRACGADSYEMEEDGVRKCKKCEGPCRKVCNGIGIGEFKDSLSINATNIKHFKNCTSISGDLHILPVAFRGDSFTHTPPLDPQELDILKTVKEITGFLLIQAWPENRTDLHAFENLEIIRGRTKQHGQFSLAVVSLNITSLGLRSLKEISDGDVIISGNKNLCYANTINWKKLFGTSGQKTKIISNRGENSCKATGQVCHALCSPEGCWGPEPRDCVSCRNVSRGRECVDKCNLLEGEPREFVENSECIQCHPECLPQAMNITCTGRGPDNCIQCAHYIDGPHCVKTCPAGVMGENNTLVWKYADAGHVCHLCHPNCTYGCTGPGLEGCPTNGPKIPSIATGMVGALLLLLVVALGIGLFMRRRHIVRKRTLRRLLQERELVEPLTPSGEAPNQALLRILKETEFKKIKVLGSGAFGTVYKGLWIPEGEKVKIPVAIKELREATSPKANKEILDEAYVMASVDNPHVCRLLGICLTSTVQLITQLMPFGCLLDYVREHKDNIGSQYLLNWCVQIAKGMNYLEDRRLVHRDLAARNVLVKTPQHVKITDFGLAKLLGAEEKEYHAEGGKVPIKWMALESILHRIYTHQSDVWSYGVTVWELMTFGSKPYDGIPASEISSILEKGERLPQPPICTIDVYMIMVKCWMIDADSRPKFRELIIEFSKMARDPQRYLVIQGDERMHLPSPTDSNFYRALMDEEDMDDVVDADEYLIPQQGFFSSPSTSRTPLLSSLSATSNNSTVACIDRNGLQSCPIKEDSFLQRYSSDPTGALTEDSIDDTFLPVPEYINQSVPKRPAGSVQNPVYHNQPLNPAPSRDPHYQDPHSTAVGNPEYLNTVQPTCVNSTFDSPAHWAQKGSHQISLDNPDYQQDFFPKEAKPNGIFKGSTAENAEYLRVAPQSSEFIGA
Sequence of EGFR del19/C797S (P00533 with tags, fused parts or gaps DEL746-750/C797S): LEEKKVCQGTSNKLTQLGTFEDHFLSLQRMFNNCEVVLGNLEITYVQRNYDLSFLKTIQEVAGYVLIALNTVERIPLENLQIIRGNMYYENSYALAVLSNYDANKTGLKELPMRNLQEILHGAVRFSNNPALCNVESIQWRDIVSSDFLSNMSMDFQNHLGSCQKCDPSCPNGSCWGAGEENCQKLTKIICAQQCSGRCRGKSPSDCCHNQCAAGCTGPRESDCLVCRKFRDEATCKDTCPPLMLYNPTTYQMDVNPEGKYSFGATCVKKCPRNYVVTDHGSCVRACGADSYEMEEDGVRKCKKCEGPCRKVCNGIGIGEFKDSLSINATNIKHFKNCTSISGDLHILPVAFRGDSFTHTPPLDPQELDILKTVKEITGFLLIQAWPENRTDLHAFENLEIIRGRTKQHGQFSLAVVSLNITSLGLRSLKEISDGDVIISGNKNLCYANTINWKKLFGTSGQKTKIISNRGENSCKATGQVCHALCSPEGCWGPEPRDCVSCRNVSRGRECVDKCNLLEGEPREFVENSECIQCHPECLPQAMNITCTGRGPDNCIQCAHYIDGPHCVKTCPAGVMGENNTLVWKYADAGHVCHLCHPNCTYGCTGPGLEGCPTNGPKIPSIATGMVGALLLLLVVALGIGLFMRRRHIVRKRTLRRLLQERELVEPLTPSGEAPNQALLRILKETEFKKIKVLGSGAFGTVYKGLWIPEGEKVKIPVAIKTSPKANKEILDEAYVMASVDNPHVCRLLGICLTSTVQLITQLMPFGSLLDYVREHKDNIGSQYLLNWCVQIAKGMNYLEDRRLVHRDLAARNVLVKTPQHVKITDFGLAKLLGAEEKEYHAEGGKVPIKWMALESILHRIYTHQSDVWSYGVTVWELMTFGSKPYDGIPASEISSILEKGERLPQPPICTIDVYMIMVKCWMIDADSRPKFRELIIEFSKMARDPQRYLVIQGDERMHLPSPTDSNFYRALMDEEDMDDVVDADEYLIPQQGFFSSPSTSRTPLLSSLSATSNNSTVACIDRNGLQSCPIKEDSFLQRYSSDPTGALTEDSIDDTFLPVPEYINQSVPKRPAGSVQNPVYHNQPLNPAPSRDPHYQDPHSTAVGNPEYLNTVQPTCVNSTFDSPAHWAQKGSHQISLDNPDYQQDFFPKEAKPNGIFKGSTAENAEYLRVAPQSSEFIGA
Sequence of EGFR L858R/T790M/C797S (P00533 25-1210 T790M/C797S/L858R): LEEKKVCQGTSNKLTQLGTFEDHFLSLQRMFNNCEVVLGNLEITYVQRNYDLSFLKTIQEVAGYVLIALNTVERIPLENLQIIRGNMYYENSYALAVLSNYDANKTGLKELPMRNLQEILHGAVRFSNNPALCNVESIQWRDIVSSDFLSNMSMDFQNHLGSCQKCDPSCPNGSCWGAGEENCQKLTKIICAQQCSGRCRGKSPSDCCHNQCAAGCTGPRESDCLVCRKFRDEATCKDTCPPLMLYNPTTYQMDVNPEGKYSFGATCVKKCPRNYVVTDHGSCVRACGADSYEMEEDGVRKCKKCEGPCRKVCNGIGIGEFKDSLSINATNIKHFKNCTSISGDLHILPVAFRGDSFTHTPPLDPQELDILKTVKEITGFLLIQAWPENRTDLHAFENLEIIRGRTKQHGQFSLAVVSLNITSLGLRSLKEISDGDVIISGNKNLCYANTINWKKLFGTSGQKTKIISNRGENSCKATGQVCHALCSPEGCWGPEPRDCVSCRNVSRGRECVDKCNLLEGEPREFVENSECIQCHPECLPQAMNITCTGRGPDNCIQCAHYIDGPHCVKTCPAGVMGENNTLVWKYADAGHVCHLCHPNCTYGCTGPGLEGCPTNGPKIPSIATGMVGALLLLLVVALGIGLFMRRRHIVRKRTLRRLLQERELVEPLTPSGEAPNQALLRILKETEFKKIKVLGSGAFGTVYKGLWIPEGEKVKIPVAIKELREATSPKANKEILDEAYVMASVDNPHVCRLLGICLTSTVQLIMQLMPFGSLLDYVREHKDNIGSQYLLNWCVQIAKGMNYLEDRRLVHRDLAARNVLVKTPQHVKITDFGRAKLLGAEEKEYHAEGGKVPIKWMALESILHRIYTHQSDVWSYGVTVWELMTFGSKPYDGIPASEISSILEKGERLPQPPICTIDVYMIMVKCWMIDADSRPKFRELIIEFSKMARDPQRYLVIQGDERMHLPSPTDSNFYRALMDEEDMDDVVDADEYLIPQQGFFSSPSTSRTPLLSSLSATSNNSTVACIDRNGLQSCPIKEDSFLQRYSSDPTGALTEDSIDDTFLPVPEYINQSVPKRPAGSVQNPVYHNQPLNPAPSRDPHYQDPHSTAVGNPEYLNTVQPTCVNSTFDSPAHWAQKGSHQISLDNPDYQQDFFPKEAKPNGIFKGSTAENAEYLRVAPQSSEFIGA

For `C[C@]1(O)CC[C@@H](Nc2cc(Nc3ccnc(-c4cnn(S(=O)(=O)C5CC5)c4)n3)ncc2-c2ccn(C3COC3)n2)CC1` [Example 292, (1s,4s)-4-((2-((2-(1-(Cyclopropylsulfonyl)-1H-pyrazol-4-yl)pyrimidin-4-yl)amino)-5-(1-(oxetan-3-yl)-1H-pyrazol-3-yl)pyridin-4-yl)amino)-1-methylcyclohexan-1-ol], the IC50 against EGFR del19/T790M/C797S (setting [1]) stood at 0.2 nM; on EGFR del19/T790M/C797S (setting [2]), 0.5 nM; on EGFR L858R/C797S (setting [3]), 6.6 nM; at EGFR L858R/C797S (setting [4]) it was 0.1 nM; against EGFR L858R/T790M/C797S (setting [5]), 0.2 nM; at EGFR L858R/T790M/C797S (setting [6]) it was 0.1 nM. Further, the IC50 was determined as 0.8 nM against EGFR del19/C797S (setting [7]), 0.4 nM on EGFR del19/C797S (setting [8]) and 6970 nM against EGFR wildtype (WT) (setting [9]).
Take `O=S(=O)(C1CC1)n1cc(-c2nccc(Nc3cc(N[C@H]4CC[C@@H](NCC(F)F)CC4)c(-c4cc5n(n4)CCCC5)cn3)n2)cn1` [Example 63, N^2-(2-(1-(Cyclopropylsulfonyl)-1H-pyrazol-4-yl)pyrimidin-4-yl)-N^4-((1s,4s)-4-((2,2-difluoroethyl)amino)cyclohexyl)-5-(4,5,6,7-tetrahydropyrazolo[1,5-a]pyridin-2-yl)pyridine-2,4-diamine]: the IC50 is 7.7 nM on EGFR L858R/C797S (setting [3]); 2.2 nM at EGFR L858R/C797S (setting [4]); 3.3 nM on EGFR L858R/T790M/C797S (setting [5]); 0.7 nM on EGFR L858R/T790M/C797S (setting [6]); 2.2 nM against EGFR del19/C797S (setting [7]); 1.8 nM on EGFR del19/C797S (setting [8]). The IC50 was over 10000 nM at EGFR wildtype (WT) (setting [9]) and 4.4 nM at EGFR wildtype (WT) (setting [10]).
`C[C@]1(O)CC[C@@H](Nc2cc(Nc3ccnc(-c4cnn(S(=O)(=O)C5CC5)c4)n3)ncc2-c2ccn(C(F)(F)F)n2)CC1` [Example 285, (1s,4s)-4-((2-((2-(1-(Cyclopropylsulfonyl)-1H-pyrazol-4-yl)pyrimidin-4-yl)amino)-5-(1-(trifluoromethyl)-1H-pyrazol-3-yl)pyridin-4-yl)amino)-1-methylcyclohexan-1-ol]: the IC50 at EGFR L858R/C797S (setting [4]) turned out to be 0.6 nM; on EGFR L858R/T790M/C797S (setting [6]), 0.7 nM; on EGFR del19/C797S (setting [8]) it was 2.3 nM; on EGFR wildtype (WT) (setting [10]) it was 3.2 nM.
Take `C[C@]1(O)CC[C@@H](Nc2cc(Nc3ccnc(-c4cnn(S(=O)(=O)C5CC5)c4)n3)ncc2-c2cn(C(F)F)cn2)CC1` [Example 273, (1s,4s)-4-((2-((2-(1-(Cyclopropylsulfonyl)-1H-pyrazol-4-yl)pyrimidin-4-yl)amino)-5-(1-(difluoromethyl)-1H-imidazol-4-yl)pyridin-4-yl)amino)-1-methylcyclohexan-1-ol]: the IC50 was 3.1 nM on EGFR del19/T790M/C797S (setting [2]); 1.3 nM at EGFR L858R/T790M/C797S (setting [5]); 0.9 nM against EGFR del19/C797S (setting [7]); 7310 nM on EGFR wildtype (WT) (setting [9]); 5.9 nM at EGFR wildtype (WT) (setting [10]).
Turning to `C[C@]1(O)CC[C@@H](Nc2cc(Nc3ccnc(-c4cnn(S(=O)(=O)C5CC5)c4)n3)ncc2-n2ccc(OC(F)F)n2)CC1` [Example 187, (1s,4s)-4-((2-((2-(1-(Cyclopropylsulfonyl)-1H-pyrazol-4-yl)pyrimidin-4-yl)amino)-5-(3-(difluoromethoxy)-1H-pyrazol-1-yl)pyridin-4-yl)amino)-1-methylcyclohexan-1-ol], the IC50 was found to be 0.7 nM on EGFR del19/T790M/C797S (setting [2]), 0.5 nM at EGFR L858R/T790M/C797S (setting [6]), 15.4 nM on EGFR del19/C797S (setting [8]) and 282 nM at EGFR wildtype (WT) (setting [10]).
Turning to `OCC[C@H]1CC[C@H](Nc2cc(Nc3ccnc(-c4cnn(CC(F)F)c4)n3)ncc2-c2ccn(C(F)F)n2)CC1` [Example 147, 2-((1r,4r)-4-((2-((2-(1-(2,2-Difluoroethyl)-1H-pyrazol-4-yl)pyrimidin-4-yl)amino)-5-(1-(difluoromethyl)-1H-pyrazol-3-yl)pyridin-4-yl)amino)cyclohexyl)ethan-1-ol], the IC50 at EGFR L858R/C797S (setting [4]) was found to be 32.6 nM; on EGFR L858R/T790M/C797S (setting [6]), 0.8 nM; on EGFR del19/C797S (setting [8]) it was 93.9 nM; on EGFR wildtype (WT) (setting [10]) it was 51.5 nM.
As for `O=S(=O)(C1CC1)n1cc(-c2nccc(Nc3cc(N[C@H]4CC[C@@H](CCO)CC4)c(-c4ccn(C(F)F)n4)cn3)n2)cn1` [Example 135, 2-((1s,4s)-4-((2-((2-(1-(Cyclopropylsulfonyl)-1H-pyrazol-4-yl)pyrimidin-4-yl)amino)-5-(1-(difluoromethyl)-1H-pyrazol-3-yl)pyridin-4-yl)amino)cyclohexyl)ethan-1-ol], the IC50 was 58 nM at EGFR L858R/C797S (setting [3]); 4.5 nM on EGFR L858R/C797S (setting [4]); 2.1 nM against EGFR L858R/T790M/C797S (setting [5]); 0.5 nM on EGFR L858R/T790M/C797S (setting [6]); 1.1 nM against EGFR del19/C797S (setting [7]); 0.7 nM at EGFR del19/C797S (setting [8]). Moreover, the IC50 against EGFR wildtype (WT) (setting [9]) is over 10000 nM; at EGFR wildtype (WT) (setting [10]), 5.7 nM.
Regarding `C[C@]1(O)CC[C@@H](Nc2cc(Nc3ccnc(-c4cnn(S(=O)(=O)C5CC5)c4)n3)ncc2-c2ccn(CC(F)(F)F)n2)CC1` [Example 289, (1s,4s)-4-((2-((2-(1-(Cyclopropylsulfonyl)-1H-pyrazol-4-yl)pyrimidin-4-yl)amino)-5-(1-(2,2,2-trifluoroethyl)-1H-pyrazol-3-yl)pyridin-4-yl)amino)-1-methylcyclohexan-1-ol], the IC50 against EGFR L858R/C797S (setting [3]) is 27.4 nM; against EGFR del19/C797S (setting [7]) it was 2.7 nM; at EGFR wildtype (WT) (setting [9]), over 10000 nM; on EGFR wildtype (WT) (setting [10]), 17.4 nM.
Take `Cc1nn(CC(F)(F)F)cc1-c1nccc(Nc2cc(N[C@H]3CC[C@@](C)(O)CC3)c(-c3ccn(C(F)(F)F)n3)cn2)n1` [Example 341, (1s,4s)-1-Methyl-4-((2-((2-(3-methyl-1-(2,2,2-trifluoroethyl)-1H-pyrazol-4-yl)pyrimidin-4-yl)amino)-5-(1-(trifluoromethyl)-1H-pyrazol-3-yl)pyridin-4-yl)amino)cyclohexan-1-ol]: the pIC50 is 7.83 on EGFR L858R/C797S (Km ATP), 9.05 on EGFR L858R/T790M/C797S (Km ATP), 7.66 at EGFR del19/C797S (Km ATP) and 7.32 at EGFR wildtype (WT) (Km ATP).
The corresponding values for `CC(C)(O)[C@H]1CC[C@@H](Nc2nc(Nc3ccnc(-c4cnn(S(=O)(=O)C5CC5)c4)c3)ncc2-c2ccn(C(F)F)n2)CC1` [Example 365, 2-((1s,4s)-4-((2-((2-(1-(Cyclopropylsulfonyl)-1H-pyrazol-4-yl)pyridin-4-yl)amino)-5-(1-(difluoromethyl)-1H-pyrazol-3-yl)pyrimidin-4-yl)amino)cyclohexyl)propan-2-ol] are 7.32, 8.64, 7.34 and 6.51.
For `Cn1nc(-c2cnc(Nc3ccnc(-c4cnn(CC(F)F)c4)n3)cc2N[C@H]2CC[C@@H](CCO)CC2)cc1C(F)(F)F` [Example 333, 2-((1s,4s)-4-((2-((2-(1-(2,2-Difluoroethyl)-1H-pyrazol-4-yl)pyrimidin-4-yl)amino)-5-(1-methyl-5-(trifluoromethyl)-1H-pyrazol-3-yl)pyridin-4-yl)amino)cyclohexyl)ethan-1-ol], the pIC50 on EGFR del19/T790M/C797S (Km ATP, read-out: IC50 del19/T790M/C797S, Km ATP) is 8.36; on EGFR L858R/T790M/C797S (Km ATP), 8.54; at EGFR del19/C797S (Km ATP), 7.78; at EGFR wildtype (WT) (Km ATP) it was 7.21.
Take `CC(C)(O)c1nc(-c2cnc(Nc3ccnc(-c4cnn(S(=O)(=O)C5CC5)c4)n3)cc2N[C@H]2CC[C@@](C)(O)CC2)cs1` [Example 93, (1s,4s)-4-((2-((2-(1-(Cyclopropylsulfonyl)-1H-pyrazol-4-yl)pyrimidin-4-yl)amino)-5-(2-(2-hydroxypropan-2-yl)thiazol-4-yl)pyridin-4-yl)amino)-1-methylcyclohexan-1-ol]: the IC50 was 4 nM on EGFR del19/T790M/C797S (setting [1]), 15.7 nM against EGFR L858R/C797S (setting [3]), 5.3 nM against EGFR del19/C797S (setting [7]) and over 10000 nM against EGFR wildtype (WT) (setting [9]).
As to `C[C@]1(O)CC[C@@H](Nc2cc(Nc3ccnc(-c4cnn(S(=O)(=O)C5CC5)c4)n3)ncc2-c2ccn(C(F)F)n2)CC1` [Example 10, (1s,4s)-4-((2-((2-(1-(Cyclopropylsulfonyl)-1H-pyrazol-4-yl)pyrimidin-4-yl)amino)-5-(1-(difluoromethyl)-1H-pyrazol-3-yl)pyridin-4-yl)amino)-1-methylcyclohexan-1-ol], the IC50 on EGFR L858R/C797S (setting [3]) came out at 2.7 nM; at EGFR L858R/T790M/C797S (setting [5]), 1.3 nM; on EGFR del19/C797S (setting [7]), 3.2 nM; against EGFR wildtype (WT) (setting [9]), 1060 nM.

Source of the values: patent US12258327B2, “5-membered heteroaryl-containing aminopyridine compounds as EGFR inhibitors” (YUHAN CORPORATION, priority 2021, dated 2025).
